Assay results published in PubChem BioAssay (NCI).
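Compound exposure: 48 hours, 5 concentrations, 96-well plates. TGI is the concentration that stops growth completely.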

Legend:
Assay in all cases: inhibition of tumour cell growth, NCI panel, 48 h
ACHN renal = test system: ACHN renal
SK-OV-3 ovarian = test system: SK-OV-3 ovarian
SK-MEL-2 melanoma = test system: SK-MEL-2 melanoma
T-47D breast = test system: T-47D breast
CAKI-1 renal = test system: CAKI-1 renal
HL-60(TB) leukemia = test system: HL-60(TB) leukemia
SR leukemia = test system: SR leukemia
MDA-MB-435 = test system: MDA-MB-435
OVCAR-4 ovarian = test system: OVCAR-4 ovarian
HCT-15 colon = test system: HCT-15 colon
SF-295 CNS = test system: SF-295 CNS
HOP-62 NSCLC = test system: HOP-62 NSCLC
LOX IMVI melanoma = test system: LOX IMVI melanoma
SF-539 CNS = test system: SF-539 CNS
RPMI-8226 leukemia = test system: RPMI-8226 leukemia
MDA-MB-231 breast = test system: MDA-MB-231 breast
BT-549 breast = test system: BT-549 breast
SF-268 CNS = test system: SF-268 CNS
PC-3 prostate = test system: PC-3 prostate
EKVX NSCLC = test system: EKVX NSCLC
SK-MEL-5 melanoma = test system: SK-MEL-5 melanoma
HCT-116 colon = test system: HCT-116 colon
OVCAR-8 ovarian = test system: OVCAR-8 ovarian
SNB-75 CNS = test system: SNB-75 CNS
MDA-N = test system: MDA-N
TK-10 renal = test system: TK-10 renal
IGROV1 ovarian = test system: IGROV1 ovarian
A498 renal = test system: A498 renal
K-562 leukemia = test system: K-562 leukemia
SNB-19 CNS = test system: SNB-19 CNS
SW-620 colon = test system: SW-620 colon
MALME-3M melanoma = test system: MALME-3M melanoma
OVCAR-5 ovarian = test system: OVCAR-5 ovarian
U251 CNS = test system: U251 CNS
HS 578T breast = test system: HS 578T breast
UO-31 renal = test system: UO-31 renal
HT29 colon = test system: HT29 colon
NCI-H23 lung = test system: NCI-H23 lung
SK-MEL-28 melanoma = test system: SK-MEL-28 melanoma
NCI-H460 lung = test system: NCI-H460 lung
HOP-92 NSCLC = test system: HOP-92 NSCLC
MCF7 breast = test system: MCF7 breast
SN12C renal = test system: SN12C renal
DU-145 prostate = test system: DU-145 prostate
OVCAR-3 ovarian = test system: OVCAR-3 ovarian
NCI-H226 lung = test system: NCI-H226 lung
MOLT-4 leukemia = test system: MOLT-4 leukemia
A549 NSCLC = test system: A549 NSCLC
NCI-H522 lung = test system: NCI-H522 lung
UACC-62 melanoma = test system: UACC-62 melanoma
CCRF-CEM leukemia = test system: CCRF-CEM leukemia
RXF 393 renal = test system: RXF 393 renal
M14 melanoma = test system: M14 melanoma
UACC-257 melanoma = test system: UACC-257 melanoma
786-0 renal = test system: 786-0 renal
NCI/ADR-RES ovarian = test system: NCI/ADR-RES ovarian
KM12 colon = test system: KM12 colon
COLO 205 colon = test system: COLO 205 colon

For `COc1cc(-c2nc3ccc(N4CCN(C)CC4)cc3[nH]2)c(OC)c2[nH]c(CO)nc12`, the TGI (ACHN renal) was > 100 µM, the TGI (SK-OV-3 ovarian) was > 100 µM and the TGI (SK-MEL-2 melanoma) was > 100 µM. The TGI (T-47D breast) was > 100 µM, the TGI (CAKI-1 renal) was > 100 µM and the TGI (HL-60(TB) leukemia) was 37.2 µM. The TGI (SR leukemia) was > 100 µM, the TGI (MDA-MB-435) was > 100 µM and the TGI (OVCAR-4 ovarian) was > 100 µM. For the same molecule, the TGI (HCT-15 colon) was > 100 µM, the TGI (SF-295 CNS) was > 100 µM and the TGI (HOP-62 NSCLC) was > 100 µM. The TGI (LOX IMVI melanoma) was > 100 µM, the TGI (SF-539 CNS) was > 100 µM and the TGI (RPMI-8226 leukemia) was > 100 µM. For the same molecule, the TGI (MDA-MB-231 breast) was > 100 µM, the TGI (BT-549 breast) was > 100 µM and the TGI (SF-268 CNS) was > 100 µM. The TGI (PC-3 prostate) was > 100 µM, the TGI (EKVX NSCLC) was > 100 µM and the TGI (SK-MEL-5 melanoma) was > 100 µM. For the same molecule, the TGI (HCT-116 colon) was > 100 µM, the TGI (OVCAR-8 ovarian) was > 100 µM and the TGI (SNB-75 CNS) was > 100 µM. For the same molecule, the TGI (MDA-N) was > 100 µM, the TGI (TK-10 renal) was > 100 µM and the TGI (IGROV1 ovarian) was > 100 µM. The TGI (A498 renal) was > 100 µM, the TGI (K-562 leukemia) was > 100 µM and the TGI (SNB-19 CNS) was > 100 µM. For the same molecule, the TGI (SW-620 colon) was > 100 µM, the TGI (MALME-3M melanoma) was > 100 µM and the TGI (OVCAR-5 ovarian) was > 100 µM. For the same molecule, the TGI (U251 CNS) was > 100 µM, the TGI (HS 578T breast) was > 100 µM and the TGI (UO-31 renal) was > 100 µM. The TGI (HT29 colon) was > 100 µM, the TGI (NCI-H23 lung) was > 100 µM and the TGI (SK-MEL-28 melanoma) was > 100 µM. For the same molecule, the TGI (NCI-H460 lung) was > 100 µM, the TGI (HOP-92 NSCLC) was > 100 µM and the TGI (MCF7 breast) was > 100 µM. The TGI (SN12C renal) was > 100 µM, the TGI (DU-145 prostate) was > 100 µM and the TGI (OVCAR-3 ovarian) was > 100 µM. The TGI (NCI-H226 lung) was > 100 µM, the TGI (MOLT-4 leukemia) was > 100 µM and the TGI (A549 NSCLC) was > 100 µM. The TGI (NCI-H522 lung) was > 100 µM, the TGI (UACC-62 melanoma) was > 100 µM and the TGI (CCRF-CEM leukemia) was 44.5 µM. The TGI (RXF 393 renal) was > 100 µM, the TGI (M14 melanoma) was > 100 µM and the TGI (UACC-257 melanoma) was > 100 µM. For the same molecule, the TGI (786-0 renal) was > 100 µM, the TGI (NCI/ADR-RES ovarian) was > 100 µM and the TGI (KM12 colon) was > 100 µM. The TGI (COLO 205 colon) was > 100 µM.

With `CCCCCCCCCCCC[C@@H](O)[C@H]1CC[C@H]([C@H]2CC[C@H]([C@H](O)CC[C@H](O)CCCCCCCC3=C[C@H](C)OC3=O)O2)O1` the TGI (ACHN renal) was 2.45 µM, the TGI (SK-MEL-2 melanoma) was 2.93 µM and the TGI (T-47D breast) was > 10 µM. For the same molecule, the TGI (CAKI-1 renal) was 6.81 µM, the TGI (HL-60(TB) leukemia) was 4.17 µM and the TGI (SR leukemia) was > 10 µM. The TGI (MDA-MB-435) was 4.05 µM, the TGI (HCT-15 colon) was 4.33 µM and the TGI (SF-295 CNS) was 3.01 µM. The TGI (HOP-62 NSCLC) was 2.96 µM, the TGI (LOX IMVI melanoma) was 2.76 µM and the TGI (SF-539 CNS) was 3.12 µM. For the same molecule, the TGI (RPMI-8226 leukemia) was 9.49 µM, the TGI (MDA-MB-231 breast) was 6.36 µM and the TGI (BT-549 breast) was 1.02 µM. It also gave a TGI (SF-268 CNS) of 3.32 µM, a TGI (PC-3 prostate) of 2.9 µM and a TGI (EKVX NSCLC) of 2.82 µM. It also gave a TGI (SK-MEL-5 melanoma) of 4.48 µM, a TGI (HCT-116 colon) of 4.42 µM and a TGI (OVCAR-8 ovarian) of 4 µM. It also gave a TGI (SNB-75 CNS) of 3.77 µM, a TGI (MDA-N) of 4.49 µM and a TGI (TK-10 renal) of 2.65 µM. For the same molecule, the TGI (IGROV1 ovarian) was 3.2 µM, the TGI (A498 renal) was 4.94 µM and the TGI (K-562 leukemia) was > 10 µM. For the same molecule, the TGI (SNB-19 CNS) was 2.62 µM, the TGI (SW-620 colon) was 5.82 µM and the TGI (OVCAR-5 ovarian) was 3.25 µM. The TGI (U251 CNS) was 5.32 µM, the TGI (HS 578T breast) was 5.48 µM and the TGI (UO-31 renal) was 2.16 µM. The TGI (HT29 colon) was 3.25 µM, the TGI (NCI-H23 lung) was 2.31 µM and the TGI (SK-MEL-28 melanoma) was 3.6 µM. The TGI (NCI-H460 lung) was 2.82 µM, the TGI (HOP-92 NSCLC) was 4.23 µM and the TGI (MCF7 breast) was 2.72 µM. For the same molecule, the TGI (SN12C renal) was 8.13 µM, the TGI (DU-145 prostate) was > 10 µM and the TGI (OVCAR-3 ovarian) was 2.95 µM. For the same molecule, the TGI (NCI-H226 lung) was 3.48 µM, the TGI (MOLT-4 leukemia) was > 10 µM and the TGI (A549 NSCLC) was 4.42 µM. The TGI (UACC-62 melanoma) was 2.58 µM, the TGI (CCRF-CEM leukemia) was 4.74 µM and the TGI (RXF 393 renal) was 5.9 µM. The TGI (M14 melanoma) was 3.11 µM, the TGI (UACC-257 melanoma) was 2.35 µM and the TGI (786-0 renal) was 5.66 µM. It also gave a TGI (NCI/ADR-RES ovarian) of 3.8 µM, a TGI (KM12 colon) of 2.9 µM and a TGI (COLO 205 colon) of 3.94 µM.

`COc1ccc(C(=O)/C=C/c2ccc(Oc3cc(C(=O)/C=C/c4ccc(O)cc4)c(O)cc3OC)cc2)c(O)c1` was tested, and the TGI (ACHN renal) was 6.85 µM, the TGI (SK-OV-3 ovarian) was 96.4 µM and the TGI (SK-MEL-2 melanoma) was 46 µM. For the same molecule, the TGI (T-47D breast) was 66.9 µM, the TGI (CAKI-1 renal) was 68.4 µM and the TGI (HL-60(TB) leukemia) was > 100 µM. For the same molecule, the TGI (SR leukemia) was 5.73 µM, the TGI (MDA-MB-435) was > 100 µM and the TGI (OVCAR-4 ovarian) was 18 µM. The TGI (HCT-15 colon) was 6.62 µM, the TGI (SF-295 CNS) was 40.2 µM and the TGI (HOP-62 NSCLC) was 49.2 µM. It also gave a TGI (LOX IMVI melanoma) of 5.05 µM, a TGI (SF-539 CNS) of 5.26 µM and a TGI (RPMI-8226 leukemia) of 4.7 µM. For the same molecule, the TGI (MDA-MB-231 breast) was 9.8 µM, the TGI (BT-549 breast) was > 100 µM and the TGI (SF-268 CNS) was > 100 µM. For the same molecule, the TGI (PC-3 prostate) was > 100 µM, the TGI (EKVX NSCLC) was 23.5 µM and the TGI (SK-MEL-5 melanoma) was 18.7 µM. It also gave a TGI (HCT-116 colon) of 3.96 µM, a TGI (OVCAR-8 ovarian) of 9.83 µM and a TGI (SNB-75 CNS) of 18.2 µM. For the same molecule, the TGI (MDA-N) was > 100 µM, the TGI (TK-10 renal) was 58 µM and the TGI (IGROV1 ovarian) was 6.13 µM. The TGI (A498 renal) was 6.26 µM, the TGI (K-562 leukemia) was > 100 µM and the TGI (SNB-19 CNS) was > 100 µM. The TGI (SW-620 colon) was > 100 µM, the TGI (MALME-3M melanoma) was 59.8 µM and the TGI (OVCAR-5 ovarian) was 26 µM. For the same molecule, the TGI (U251 CNS) was > 100 µM, the TGI (HS 578T breast) was > 100 µM and the TGI (UO-31 renal) was 11.3 µM. The TGI (HT29 colon) was 5.13 µM, the TGI (NCI-H23 lung) was 18.1 µM and the TGI (SK-MEL-28 melanoma) was 8.15 µM. For the same molecule, the TGI (NCI-H460 lung) was > 100 µM, the TGI (HOP-92 NSCLC) was 38.4 µM and the TGI (MCF7 breast) was > 100 µM. For the same molecule, the TGI (SN12C renal) was > 100 µM, the TGI (DU-145 prostate) was > 100 µM and the TGI (OVCAR-3 ovarian) was 32.2 µM. For the same molecule, the TGI (A549 NSCLC) was > 100 µM, the TGI (NCI-H522 lung) was 10.5 µM and the TGI (UACC-62 melanoma) was 11.2 µM. For the same molecule, the TGI (CCRF-CEM leukemia) was > 100 µM, the TGI (RXF 393 renal) was 6.96 µM and the TGI (M14 melanoma) was 61.2 µM. For the same molecule, the TGI (UACC-257 melanoma) was > 100 µM, the TGI (786-0 renal) was 7.9 µM and the TGI (NCI/ADR-RES ovarian) was 11 µM. The TGI (KM12 colon) was 7.83 µM and the TGI (COLO 205 colon) was 15.4 µM.
